Test results reported in patent US20260250318A1, “COMPOSITIONS AND METHODS FOR CROSSING THE BLOOD BRAIN BARRIER” (VOYAGER THERAPEUTICS, INC., priority 2022, published 2026).

What was measured:
brain = experiment: Matured TTM-001 and TTM-002 variants, NGS enrichment in mouse brain; assay type: in vivo, mice; settings: relative to AAV9 control
[1] = test system: brains, heart, liver, muscle, and DRG of the NHPs; experiment: Maturation of TTM-001 and TTM-002 capsids, NGS enrichment in NHP tissues; assay type: in vivo; settings: relative to AAV9 control
In short: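 Variants carry mutations within and flanking the loop IV peptide insert: positions 450–466 were triplet-randomized, while positions 449–466 received low-frequency point mutations. The combined pool went into two NHPs, and each peptide was scored by NGS enrichment ratio against AAV9.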

[2] = NGS fold-enrichment, brain of mice
[3] = NGS fold-enrichment, mouse brain
[4] = NGS fold-enrichment of RNA, NHP brain
[5] = NGS fold-enrichment, DRG of NHPs
[6] = NGS fold-enrichment, NHP liver DNA
[7] = NGS fold-enrichment, NHP liver RNA
[8] = NGS fold-enrichment, NHP muscle
[9] = NGS fold-enrichment, RNA, brain of NHPs
[10] = NGS fold-enrichment, heart of NHPs
[11] = NGS fold-enrichment, liver DNA of NHPs
[12] = NGS fold-enrichment, liver RNA of NHPs
[13] = NGS fold-enrichment, muscle of NHPs
[14] = NGS fold-enrichment of matured AAV capsid variants, NHP brain, RNA

Sequence	Fold Enrichment relative to AAV9, Brain (Mouse) (brain; [2]) [fold]	Fold Enrichment relative to AAV9, DRG (NHP) [1, 5] [fold]	Fold Enrichment relative to AAV9, Brain (NHP) [1, 9] [fold]	Fold Enrichment relative to AAV9, Heart (NHP) [1, 10] [fold]	Fold Enrichment relative to AAV9, Liver DNA (NHP) [1, 11] [fold]	Fold Enrichment relative to AAV9, Liver RNA (NHP) [1, 12] [fold]	Fold Enrichment relative to AAV9, Muscle (NHP) [1, 13] [fold]	Fold Enrichment relative to AAV9, Brain (Mouse) (brain; mouse brain) [fold]	Fold Enrichment relative to AAV9, Brain (NHP) [1, 14] [fold]	Fold Enrichment relative to AAV9, DRG (NHP) ([1]; NHP DRG) [fold]	Fold Enrichment relative to AAV9, Heart (NHP) ([1]; NHP heart) [fold]	Fold Enrichment relative to AAV9, Liver DNA (NHP) ([1]; NHP liver, DNA) [fold]	Fold Enrichment relative to AAV9, Liver RNA (NHP) ([1]; NHP liver, RNA) [fold]	Fold Enrichment relative to AAV9, Muscle (NHP) ([1]; NHP muscle) [fold]	other results
KTINGSGSPHSKGHWQQT	65.252	0.000	81.434	0.000	1.011	0.000	0.000	–	–	–	–	–	–	–	Fold Enrichment relative to AAV9, Brain (Mouse) (brain; [3]): 65.252 fold; Fold Enrichment relative to AAV9, Brain (NHP) [1, 4]: 81.434 fold; Fold Enrichment relative to AAV9, DRG (NHP) ([1]; NGS fold-enrichment, NHP DRG): 0.000 fold; Fold Enrichment relative to AAV9, Heart (NHP) ([1]; NGS fold-enrichment, NHP heart): 0.000 fold; Fold Enrichment relative to AAV9, Liver DNA (NHP) [1, 6]: 1.011 fold; Fold Enrichment relative to AAV9, Liver RNA (NHP) [1, 7]: 0.000 fold; Fold Enrichment relative to AAV9, Muscle (NHP) [1, 8]: 0.000 fold
KTINGSGSPHSKGQNPPT	134.808	0.000	72.339	0.206	0.041	0.000	0.000	–	–	–	–	–	–	–	–
KTINGSGSPHSKLKSQQT	–	–	–	–	–	–	–	95.240	50.368	0.000	0.296	1.096	1.796	0.000	–
KTINGSGSPHSKLQKQQT	–	–	–	–	–	–	–	61.833	52.144	0.615	0.477	0.429	1.113	1.071	–
KTINGSGSPHSKNQWQQT	–	–	–	–	–	–	–	65.506	50.800	0.000	0.044	0.324	0.111	0.047	–
KTINGSGSPHSKNRDQQT	–	–	–	–	–	–	–	100.300	51.830	0.000	0.008	0.138	0.480	0.000	–
KTINGSGSPHSKRLEQQT	–	–	–	–	–	–	–	71.704	53.512	0.000	0.118	0.292	0.161	0.003	–
KTINGSGSPHSKRMEQQT	–	–	–	–	–	–	–	81.769	50.177	0.000	0.000	0.208	1.327	0.000	–
KTINGSGSPHSKRPEQQT	50.319	0.000	80.418	0.013	0.361	0.149	0.000	–	–	–	–	–	–	–	Fold Enrichment relative to AAV9, Brain (Mouse) (brain; [3]): 50.319 fold; Fold Enrichment relative to AAV9, Brain (NHP) [1, 4]: 80.418 fold; Fold Enrichment relative to AAV9, DRG (NHP) ([1]; NGS fold-enrichment, NHP DRG): 0.000 fold; Fold Enrichment relative to AAV9, Heart (NHP) ([1]; NGS fold-enrichment, NHP heart): 0.013 fold; Fold Enrichment relative to AAV9, Liver DNA (NHP) [1, 6]: 0.361 fold; Fold Enrichment relative to AAV9, Liver RNA (NHP) [1, 7]: 0.149 fold; Fold Enrichment relative to AAV9, Muscle (NHP) [1, 8]: 0.000 fold
KTINGSGSPHSKSQNQHI	76.025	0.000	59.438	0.099	0.108	0.111	0.000	–	–	–	–	–	–	–	–
KTINGSGSPHSKSQNVQT	56.672	0.000	66.627	0.190	0.188	0.202	0.000	–	–	–	–	–	–	–	–
KTINGSGSPHSKSQSQLT	–	–	–	–	–	–	–	125.577	55.430	0.000	0.035	0.013	0.050	0.000	–
KTINGSGSPHSKSQSQQI	64.027	0.000	61.870	0.000	0.175	0.200	0.000	–	–	–	–	–	–	–	–
KTINGSGSPHSKSQTQQN	54.021	0.000	104.474	0.131	0.038	0.084	0.000	–	–	–	–	–	–	–	Fold Enrichment relative to AAV9, Brain (Mouse) (brain; [3]): 54.021 fold; Fold Enrichment relative to AAV9, Brain (NHP) [1, 4]: 104.474 fold; Fold Enrichment relative to AAV9, DRG (NHP) ([1]; NGS fold-enrichment, NHP DRG): 0.000 fold; Fold Enrichment relative to AAV9, Heart (NHP) ([1]; NGS fold-enrichment, NHP heart): 0.131 fold; Fold Enrichment relative to AAV9, Liver DNA (NHP) [1, 6]: 0.038 fold; Fold Enrichment relative to AAV9, Liver RNA (NHP) [1, 7]: 0.084 fold; Fold Enrichment relative to AAV9, Muscle (NHP) [1, 8]: 0.000 fold
KTINGSGSPHSKTKSQQT	83.923	0.000	70.891	0.568	0.496	0.418	0.045	–	–	–	–	–	–	–	–
KTINGSGSPHSKTQNHQN	–	–	–	–	–	–	–	64.846	55.551	0.000	0.048	0.099	0.000	0.000	–
